Consider 16 compounds from patent publication US20250368649A1, “TETRAHYDROPYRIDOPYRIMIDINE PAN-KRAS INHIBITORS” (Mirati Therapeutics, Inc., priority 2022, published 2025).

Assay [1] deals with KRas G12D (Homo sapiens, UniProt P01116, G12D). Kind of assay: biochemical. The note with it: Binding to KRas (IC50 nM) G12D, TR-FRET displacement, KRas G12D.
Assay [2] addresses KRas G12V (Homo sapiens, UniProt P01116, G12V). Kind of assay: biochemical. To be noted: Binding to KRas (IC50 nM) G12V, TR-FRET displacement, KRas G12V. (In general: In TR-FRET formats the signal depends on donor and acceptor labels being close together.)

Each structure is given as a SMILES string.

Chain of KRas G12V (P01116 1-169 isoform P01116-2 G12V): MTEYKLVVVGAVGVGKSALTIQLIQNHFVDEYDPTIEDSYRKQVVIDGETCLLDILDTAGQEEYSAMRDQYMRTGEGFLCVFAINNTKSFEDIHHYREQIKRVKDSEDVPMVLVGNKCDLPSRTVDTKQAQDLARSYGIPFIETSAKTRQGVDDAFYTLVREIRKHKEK
Chain of KRas G12D (P01116 1-169 isoform P01116-2 G12D): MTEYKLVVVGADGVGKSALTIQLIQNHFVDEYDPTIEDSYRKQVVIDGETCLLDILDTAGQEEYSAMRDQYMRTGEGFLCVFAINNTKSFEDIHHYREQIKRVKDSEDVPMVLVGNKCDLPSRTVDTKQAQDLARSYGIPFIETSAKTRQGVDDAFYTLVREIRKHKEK

Consider `CCc1cccc2cccc(N3CCc4c(nc(OCC5(CN(C)C)CC5)nc4NCCc4nncn4C(C)C)C3)c12` [Example 571, 2-((1-((dimethylamino)methyl)cyclopropyl)methoxy)-7-(8-ethylnaphthalen-1-yl)-N-(2-(4-isopropyl-4H-1,2,4-triazol-3-yl)ethyl)-5,6,7,8-tetrahydropyrido[3,4-d]pyrimidin-4-amine], for which the figures for the IC50 in assay [1] and in assay [2] were 75700 nM and 6720 nM, respectively.

Regarding `CCc1cccc2cccc(N3CCc4c(nc(OCC5(CN(C)C)CC5)nc4NCCc4nnc5ccccn45)C3)c12` [Example 572, N-(2-([1,2,4]triazolo[4,3-a]pyridin-3-yl)ethyl)-2-((1-((dimethylamino)methyl)cyclopropyl)methoxy)-7-(8-ethylnaphthalen-1-yl)-5,6,7,8-tetrahydropyrido[3,4-d]pyrimidin-4-amine], the IC50 – broadly, the concentration that gives 50% inhibition – is 89400 nM in assay [1] and 4560 nM in assay [2].

Consider `CCc1cccc2cccc(N3CCc4c(nc(OCC5(CN(C)C)CC5)nc4NCC4(NC(=O)OC(C)(C)C)CCOC4)C3)c12` (centres unmarked) [Example 573, tert-butyl (3-(((2-((1-((dimethylamino)methyl)cyclopropyl)methoxy)-7-(8-ethylnaphthalen-1-yl)-5,6,7,8-tetrahydropyrido[3,4-d]pyrimidin-4-yl)amino)methyl)tetrahydrofuran-3-yl)carbamate], for which the values for the IC50 in assay [1] and in assay [2] were 96000 nM and 7840 nM, respectively.

As to `CCc1cccc2cccc(N3CCc4c(nc(OCC5(CN(C)C)CC5)nc4N4CCCOC(CC)C4)C3)c12` (centres unmarked) [Example 663, 1-(1-(((4-(2-ethyl-1,4-oxazepan-4-yl)-7-(8-ethylnaphthalen-1-yl)-5,6,7,8-tetrahydropyrido[3,4-d]pyrimidin-2-yl)oxy)methyl)cyclopropyl)-N,N-dimethylmethanamine], the results for the IC50 in assay [1] and in assay [2] were 2310 nM and 1420 nM, respectively.

Regarding `CCc1cccc2cccc(N3CCc4c(nc(OCC5(CN(C)C)CC5)nc4N4CCOCC(C)C4)C3)c12` (centres unmarked) [Example 664, 1-(1-(((7-(8-ethylnaphthalen-1-yl)-4-(6-methyl-1,4-oxazepan-4-yl)-5,6,7,8-tetrahydropyrido[3,4-d]pyrimidin-2-yl)oxy)methyl)cyclopropyl)-N,N-dimethylmethanamine], the IC50 amounted to 254 nM in assay [1] and 317 nM in assay [2].

As to `CCc1cccc2cccc(N3CCc4c(nc(OCC5(CN(C)C)CC5)nc4N4CCOCC(O)C4)C3)c12` (centres unmarked) [Example 666, 4-(2-((1-((dimethylamino)methyl)cyclopropyl)methoxy)-7-(8-ethylnaphthalen-1-yl)-5,6,7,8-tetrahydropyrido[3,4-d]pyrimidin-4-yl)-1,4-oxazepan-6-ol], the IC50 in assay [1] turned out to be 340 nM; in assay [2], 238 nM.

Consider `CCc1cccc2cccc(N3CCc4c(nc(OCC5(CN(C)C)CC5)nc4N4CCCOC(C)C4)C3)c12` (centres unmarked) [Example 667, 1-(1-(((7-(8-ethylnaphthalen-1-yl)-4-(2-methyl-1,4-oxazepan-4-yl)-5,6,7,8-tetrahydropyrido[3,4-d]pyrimidin-2-yl)oxy)methyl)cyclopropyl)-N,N-dimethylmethanamine], for which the IC50 turned out to be 223 nM in assay [1] and 243 nM in assay [2].

Take `CCc1cccc2cccc(N3CCc4c(nc(OCC5(CN(C)C)CC5)nc4N(C)Cc4nncn4C)C3)c12` [Example 668, 2-((1-((dimethylamino)methyl)cyclopropyl)methoxy)-7-(8-ethylnaphthalen-1-yl)-N-methyl-N-((4-methyl-4H-1,2,4-triazol-3-yl)methyl)-5,6,7,8-tetrahydropyrido[3,4-d]pyrimidin-4-amine]: the IC50 is 8990 nM in assay [1] and 2050 nM in assay [2].

`CCc1cccc2cccc(N3CCc4c(nc(OCC5(CN(C)C)CC5)nc4N4CCCOCC4)C3)c12` [Example 669, 1-(1-(((7-(8-ethylnaphthalen-1-yl)-4-(1,4-oxazepan-4-yl)-5,6,7,8-tetrahydropyrido[3,4-d]pyrimidin-2-yl)oxy)methyl)cyclopropyl)-N,N-dimethylmethanamine]: the values for the IC50 in assay [1] and in assay [2] were 190 nM and 199 nM, respectively.

For `CCc1cccc2cccc(N3CCc4c(nc(OCC5(CN(C)C)CC5)nc4N4CCOCC(CC)C4)C3)c12` (centres unmarked) [Example 672, 1-(1-(((4-(6-ethyl-1,4-oxazepan-4-yl)-7-(8-ethylnaphthalen-1-yl)-5,6,7,8-tetrahydropyrido[3,4-d]pyrimidin-2-yl)oxy)methyl)cyclopropyl)-N,N-dimethylmethanamine], the values for the IC50 in assay [1] and in assay [2] were 1280 nM and 1440 nM, respectively.

Take `CCc1cccc2cccc(N3CCc4c(nc(OCC5(CN(C)C)CC5)nc4NCc4ncn(C(C)C)n4)C3)c12` [Example 673, 2-((1-((dimethylamino)methyl)cyclopropyl)methoxy)-7-(8-ethylnaphthalen-1-yl)-N-((1-isopropyl-1H-1,2,4-triazol-3-yl)methyl)-5,6,7,8-tetrahydropyrido[3,4-d]pyrimidin-4-amine]: the results for the IC50 in assay [1] and in assay [2] were 8420 nM and 2440 nM, respectively.

For the compound `CCc1cccc2cccc(N3CCc4c(nc(OCC5(CN(C)C)CC5)nc4N4CCOCC(CO)C4)C3)c12` (centres unmarked) [Example 678, (4-(2-((1-((dimethylamino)methyl)cyclopropyl)methoxy)-7-(8-ethylnaphthalen-1-yl)-5,6,7,8-tetrahydropyrido[3,4-d]pyrimidin-4-yl)-1,4-oxazepan-6-yl)methanol], the IC50 in assay [1] worked out at 197 nM; in assay [2], 210 nM.

For `CCc1cccc2cccc(N3CCc4c(nc(OCC5(CN(C)C)CC5)nc4N4CCCC(c5c[nH]nn5)C4)C3)c12` (centres unmarked) [Example 679, 1-(1-(((4-(3-(1H-1,2,3-triazol-4-yl)piperidin-1-yl)-7-(8-ethylnaphthalen-1-yl)-5,6,7,8-tetrahydropyrido[3,4-d]pyrimidin-2-yl)oxy)methyl)cyclopropyl)-N,N-dimethylmethanamine], the results for the IC50 in assay [1] and in assay [2] were 5890 nM and 3190 nM, respectively.

Take `CCc1cccc2cccc(N3CCc4c(nc(OCC5(CN(C)C)CC5)nc4N4CCCC(c5c[nH]cn5)C4)C3)c12` (centres unmarked) [Example 680, 1-(1-(((4-(3-(1H-imidazol-4-yl)piperidin-1-yl)-7-(8-ethylnaphthalen-1-yl)-5,6,7,8-tetrahydropyrido[3,4-d]pyrimidin-2-yl)oxy)methyl)cyclopropyl)-N,N-dimethylmethanamine]: the figures for the IC50 in assay [1] and in assay [2] were 5490 nM and 3130 nM, respectively.

Take `CCc1cccc2cccc(N3CCc4c(nc(OCC5(CN(C)C)CC5)nc4N4CCCC(c5ccon5)C4)C3)c12` (centres unmarked) [Example 681, 1-(1-(((7-(8-ethylnaphthalen-1-yl)-4-(3-(isoxazol-3-yl)piperidin-1-yl)-5,6,7,8-tetrahydropyrido[3,4-d]pyrimidin-2-yl)oxy)methyl)cyclopropyl)-N,N-dimethylmethanamine]: the IC50 came out at 3830 nM in assay [1] and 3220 nM in assay [2].

Regarding `CCc1cccc2cccc(N3CCc4c(nc(OCC5(CN(C)C)CC5)nc4N4CCCC(n5cccn5)C4)C3)c12` (centres unmarked) [Example 682, 1-(1-(((4-(3-(1H-pyrazol-1-yl)piperidin-1-yl)-7-(8-ethylnaphthalen-1-yl)-5,6,7,8-tetrahydropyrido[3,4-d]pyrimidin-2-yl)oxy)methyl)cyclopropyl)-N,N-dimethylmethanamine], the IC50 was found to be 1610 nM in assay [1] and 1760 nM in assay [2].
